Experimental data as given in the NIST ThermoML archive (doi:10.1021/je900284z).
Where “and” joins values, the source holds several entries; their conditions need not be identical. Equal values may be shown once. Numbers after ± are expanded uncertainties.

Details: Liquid; for viscosity: Falling or rolling sphere viscometry; for mass density: 101.33 kPa

CC(C)CCCCCCCOC(=O)c1ccccc1C(=O)OCCCCCCCC(C)C
Details	viscosity
273.15 K, 100 kPa	625.8 ± 54 mPa·s
273.15 K, 9900 kPa	845.1 ± 81 mPa·s
298.15 K, 100 kPa	87.41 ± 2.4 mPa·s and 87.37 ± 2.4 mPa·s
298.15 K, 9600 kPa	110.7 ± 3.5 mPa·s
298.15 K, 20600 kPa	145 ± 5.6 mPa·s
298.15 K, 20700 kPa	145.5 ± 5.7 mPa·s
298.15 K, 30100 kPa	182.5 ± 8.2 mPa·s
298.15 K, 30300 kPa	183 ± 8.2 mPa·s
298.15 K, 40700 kPa	234.2 ± 12 mPa·s
298.15 K, 50200 kPa	289.4 ± 17 mPa·s
298.15 K, 59200 kPa	356.2 ± 24 mPa·s
298.15 K, 71600 kPa	465.4 ± 35 mPa·s
298.15 K, 82000 kPa	589 ± 49 mPa·s
298.15 K, 83300 kPa	608.4 ± 51 mPa·s
313.15 K, 100 kPa	37.71 ± 0.82 mPa·s
313.15 K, 10900 kPa	47.29 ± 1 mPa·s
313.15 K, 21200 kPa	58.95 ± 1.2 mPa·s
313.15 K, 30600 kPa	71.54 ± 1.7 mPa·s
313.15 K, 40900 kPa	88.99 ± 2.4 mPa·s
313.15 K, 51600 kPa	109.1 ± 3.5 mPa·s
313.15 K, 62400 kPa	136.7 ± 5.1 mPa·s
313.15 K, 71300 kPa	160.8 ± 6.7 mPa·s
313.15 K, 80300 kPa	192.4 ± 8.9 mPa·s
313.15 K, 89800 kPa	234.4 ± 12 mPa·s
338.15 K, 100 kPa	13.37 ± 0.29 mPa·s [middle of 4 runs]
338.15 K, 9700 kPa	15.54 ± 0.34 mPa·s
338.15 K, 10700 kPa	16.28 ± 0.35 mPa·s
338.15 K, 19400 kPa	18.62 ± 0.41 mPa·s
338.15 K, 20500 kPa	19.38 ± 0.42 mPa·s
338.15 K, 31000 kPa	23.29 ± 0.51 mPa·s
338.15 K, 31770 kPa	23.04 ± 0.5 mPa·s
338.15 K, 40100 kPa	27.24 ± 0.59 mPa·s
338.15 K, 41110 kPa	26.91 ± 0.59 mPa·s
338.15 K, 50300 kPa	32.42 ± 0.71 mPa·s
338.15 K, 51100 kPa	31.86 ± 0.69 mPa·s
338.15 K, 60400 kPa	38.31 ± 0.83 mPa·s
338.15 K, 60510 kPa	37.34 ± 0.81 mPa·s
338.15 K, 70700 kPa	45.25 ± 0.99 mPa·s
338.15 K, 70710 kPa	43.6 ± 0.95 mPa·s
338.15 K, 80200 kPa	52.53 ± 1.1 mPa·s
338.15 K, 80970 kPa	51.73 ± 1.1 mPa·s
348.15 K, 100 kPa	9.71 ± 0.21 mPa·s
348.15 K, 9800 kPa	11.47 ± 0.25 mPa·s
348.15 K, 20600 kPa	13.71 ± 0.3 mPa·s
348.15 K, 30230 kPa	15.96 ± 0.35 mPa·s
348.15 K, 31300 kPa	16.34 ± 0.36 mPa·s
348.15 K, 40810 kPa	18.91 ± 0.41 mPa·s
348.15 K, 50600 kPa	22.15 ± 0.48 mPa·s
348.15 K, 50710 kPa	22.05 ± 0.48 mPa·s
348.15 K, 61220 kPa	25.89 ± 0.56 mPa·s
348.15 K, 69800 kPa	29.77 ± 0.65 mPa·s
348.15 K, 72330 kPa	30.55 ± 0.66 mPa·s
348.15 K, 85770 kPa	37.23 ± 0.81 mPa·s

CC(C)CCCC(C)CCCC(C)CCCCC(C)CCCC(C)CCCC(C)C (stereo not drawn) [2,6,10,15,19,23-hexamethyltetracosane]
Details	viscosity
273.15 K, 100 kPa	116 ± 3.9 mPa·s and 116.2 ± 3.9 mPa·s
273.15 K, 600 kPa	121.9 ± 4.2 mPa·s
273.15 K, 10600 kPa	159.6 ± 6.6 mPa·s
273.15 K, 20600 kPa	208 ± 10 mPa·s
273.15 K, 30700 kPa	267.6 ± 15 mPa·s
273.15 K, 41400 kPa	348.4 ± 23 mPa·s
273.15 K, 50500 kPa	442.3 ± 33 mPa·s
283.15 K, 100 kPa	59.25 ± 1.3 mPa·s and 59.27 ± 1.3 mPa·s
283.15 K, 9600 kPa	76.31 ± 1.9 mPa·s
283.15 K, 19900 kPa	97.69 ± 2.9 mPa·s
283.15 K, 25810 kPa	115.2 ± 3.8 mPa·s
283.15 K, 50880 kPa	206.5 ± 10 mPa·s
283.15 K, 76760 kPa	360.6 ± 24 mPa·s
283.15 K, 100400 kPa	573.5 ± 47 mPa·s
293.15 K, 100 kPa	35.97 ± 0.8 mPa·s and 35.96 ± 0.8 mPa·s
298.15 K, 100 kPa	28.45 ± 0.63 mPa·s [middle of 6 runs]
298.15 K, 700 kPa	28.57 ± 0.63 mPa·s
298.15 K, 800 kPa	28.67 ± 0.64 mPa·s
298.15 K, 10800 kPa	35.77 ± 0.8 mPa·s
298.15 K, 20600 kPa	44.2 ± 0.98 mPa·s
298.15 K, 26000 kPa	49.37 ± 1.1 mPa·s
298.15 K, 30800 kPa	54.49 ± 1.2 mPa·s
298.15 K, 40200 kPa	65.84 ± 1.5 mPa·s
298.15 K, 50100 kPa	80.08 ± 2.1 mPa·s
298.15 K, 50600 kPa	81.24 ± 2.1 mPa·s
298.15 K, 51600 kPa	84.03 ± 2.2 mPa·s
298.15 K, 60700 kPa	98.21 ± 2.9 mPa·s
298.15 K, 70700 kPa	118.8 ± 4 mPa·s
298.15 K, 74700 kPa	129.5 ± 4.7 mPa·s
298.15 K, 75800 kPa	130.3 ± 4.7 mPa·s
298.15 K, 80500 kPa	142.3 ± 5.5 mPa·s
298.15 K, 98800 kPa	200.7 ± 9.6 mPa·s
298.15 K, 100100 kPa	201.8 ± 9.7 mPa·s
298.15 K, 125900 kPa	315.8 ± 20 mPa·s
298.15 K, 150000 kPa	465.7 ± 35 mPa·s
298.15 K, 150100 kPa	473.5 ± 36 mPa·s
303.15 K, 100 kPa	22.58 ± 0.5 mPa·s and 22.86 ± 0.51 mPa·s and 22.84 ± 0.51 mPa·s
313.15 K, 100 kPa	15.16 ± 0.34 mPa·s [middle of 6 runs]
313.15 K, 800 kPa	15.15 ± 0.34 mPa·s
313.15 K, 10700 kPa	18.58 ± 0.41 mPa·s
313.15 K, 20600 kPa	22.64 ± 0.5 mPa·s
313.15 K, 30700 kPa	27.33 ± 0.61 mPa·s
313.15 K, 40500 kPa	32.69 ± 0.73 mPa·s
313.15 K, 50200 kPa	39.01 ± 0.87 mPa·s
313.15 K, 60600 kPa	46.76 ± 1 mPa·s
313.15 K, 70600 kPa	55.53 ± 1.2 mPa·s
313.15 K, 80600 kPa	65.68 ± 1.5 mPa·s
313.15 K, 91700 kPa	78.58 ± 2 mPa·s
313.15 K, 112400 kPa	108.9 ± 3.5 mPa·s
313.15 K, 131700 kPa	145.3 ± 5.7 mPa·s
313.15 K, 151600 kPa	192.8 ± 9 mPa·s
313.15 K, 151900 kPa	196.8 ± 9.3 mPa·s
313.15 K, 168600 kPa	250 ± 14 mPa·s
313.15 K, 175400 kPa	276.7 ± 16 mPa·s
313.15 K, 190000 kPa	336.9 ± 22 mPa·s
313.15 K, 190100 kPa	340.1 ± 22 mPa·s
313.15 K, 199800 kPa	379.2 ± 26 mPa·s
313.15 K, 210400 kPa	433.8 ± 32 mPa·s
313.15 K, 227900 kPa	549.9 ± 45 mPa·s
313.15 K, 241700 kPa	669.3 ± 59 mPa·s
313.15 K, 261500 kPa	863.8 ± 83 mPa·s
313.15 K, 279800 kPa	1065 ± 110 mPa·s
313.15 K, 300500 kPa	1395 ± 160 mPa·s
323.15 K, 100 kPa	10.73 ± 0.24 mPa·s and 10.71 ± 0.24 mPa·s and 10.69 ± 0.24 mPa·s
333.15 K, 100 kPa	7.856 ± 0.17 mPa·s and 7.861 ± 0.17 mPa·s
338.15 K, 100 kPa	6.785 ± 0.15 mPa·s
338.15 K, 9700 kPa	8.064 ± 0.18 mPa·s
338.15 K, 22100 kPa	9.958 ± 0.22 mPa·s
338.15 K, 30100 kPa	11.36 ± 0.25 mPa·s
338.15 K, 40600 kPa	13.4 ± 0.3 mPa·s
338.15 K, 40800 kPa	13.45 ± 0.3 mPa·s
338.15 K, 50300 kPa	15.55 ± 0.34 mPa·s
338.15 K, 60000 kPa	17.98 ± 0.4 mPa·s
338.15 K, 60700 kPa	17.92 ± 0.4 mPa·s
338.15 K, 80700 kPa	24.24 ± 0.54 mPa·s
338.15 K, 100600 kPa	32.02 ± 0.71 mPa·s
338.15 K, 120400 kPa	41.62 ± 0.92 mPa·s
338.15 K, 140400 kPa	53.67 ± 1.1 mPa·s
338.15 K, 160300 kPa	69.03 ± 1.6 mPa·s
338.15 K, 175300 kPa	82.43 ± 2.1 mPa·s
338.15 K, 199800 kPa	111 ± 3.6 mPa·s
338.15 K, 226500 kPa	150.6 ± 6 mPa·s
338.15 K, 246000 kPa	184.6 ± 8.4 mPa·s
338.15 K, 255100 kPa	201.5 ± 9.6 mPa·s
338.15 K, 274800 kPa	252.5 ± 14 mPa·s
338.15 K, 275200 kPa	246.9 ± 13 mPa·s
338.15 K, 300000 kPa	321.5 ± 20 mPa·s
338.15 K, 303600 kPa	337.4 ± 22 mPa·s
338.15 K, 324900 kPa	416.3 ± 30 mPa·s
338.15 K, 350600 kPa	540.2 ± 44 mPa·s
338.15 K, 373000 kPa	677.2 ± 60 mPa·s
343.15 K, 100 kPa	5.979 ± 0.13 mPa·s [middle of 4 runs]
348.15 K, 100 kPa	5.281 ± 0.12 mPa·s and 5.28 ± 0.12 mPa·s and 5.248 ± 0.12 mPa·s
348.15 K, 9700 kPa	6.195 ± 0.14 mPa·s
348.15 K, 20600 kPa	7.41 ± 0.16 mPa·s
348.15 K, 30800 kPa	8.689 ± 0.19 mPa·s
348.15 K, 40900 kPa	10.14 ± 0.22 mPa·s
348.15 K, 50400 kPa	11.63 ± 0.26 mPa·s
348.15 K, 60400 kPa	13.25 ± 0.29 mPa·s
348.15 K, 60500 kPa	13.45 ± 0.3 mPa·s
348.15 K, 70300 kPa	15.23 ± 0.34 mPa·s
348.15 K, 70900 kPa	15.5 ± 0.34 mPa·s
348.15 K, 80100 kPa	17.89 ± 0.4 mPa·s
348.15 K, 80300 kPa	17.39 ± 0.39 mPa·s
348.15 K, 90300 kPa	19.95 ± 0.44 mPa·s
348.15 K, 90600 kPa	20.48 ± 0.45 mPa·s
348.15 K, 100100 kPa	22.65 ± 0.5 mPa·s
348.15 K, 100800 kPa	23.18 ± 0.51 mPa·s
348.15 K, 200500 kPa	71.69 ± 1.7 mPa·s
348.15 K, 225500 kPa	93.81 ± 2.7 mPa·s
348.15 K, 250300 kPa	121.8 ± 4.2 mPa·s
348.15 K, 275300 kPa	157.1 ± 6.4 mPa·s
348.15 K, 300000 kPa	201.5 ± 9.6 mPa·s
348.15 K, 319700 kPa	244.4 ± 13 mPa·s
348.15 K, 339600 kPa	295.8 ± 18 mPa·s
348.15 K, 359000 kPa	356.2 ± 24 mPa·s
348.15 K, 378600 kPa	428.5 ± 31 mPa·s
353.15 K, 100 kPa	4.692 ± 0.1 mPa·s and 4.695 ± 0.1 mPa·s

Details	mass density [kg/m3]
273.15 K	821.58 ± 0.54
283.15 K	815.16 ± 0.55
288.15 K	811.95 ± 0.55
293.15 K	808.74 ± 0.56
298.15 K	805.55 ± 0.56
303.15 K	802.34 ± 0.57
313.15 K	795.93 ± 0.58
323.15 K	789.53 ± 0.58
333.15 K	783.14 ± 0.59
343.15 K	776.77 ± 0.6
353.15 K	770.42 ± 0.61
363.15 K	764.06 ± 0.62
